Laboratory results published in patent publication US10183918B2, “Oxa-azaspiro compounds having activity against pain” (LABORATORIOS DEL DR. ESTEVE S.A., priority 2015, dated 2019).

Key:
human σ1 receptor = target: T1, human σ1 receptor (Homo sapiens, UniProt Q99720); assay: Human σ1 receptor radioligand assay; assay type: binding; settings: transfected HEK-293 membranes, 5 nM [3H](+)-pentazocine as radioligand
T1 construct: expressed in transfected cells; host or cells: HEK-293 (membranes)
Experimental: Human σ1 Receptor Radioligand Assay
To investigate binding properties of test compounds to human σ1 receptor, transfected HEK-293 membranes and [^3H](+)-pentazocine (Perkin Elmer, NET-1056), as the radioligand, were used. The assay was carried out with 7 μg of membrane suspension, 5 nM of [^3H](+)-pentazocine in either absence or presence of either buffer or 10 μM Haloperidol for total and non-specific binding, respectively. Binding buffer contained Tris-HCl 50 mM at pH 8. Plates were incubated at 37° C. for 120 minutes. After the incubation period, the reaction mix was then transferred to Multiscreen HTS, FC plates (Millipore), filtered and plates were washed 3 times with ice-cold 10 mM Tris-HCL (pH7.4). Filters were dried and counted at approximately 40% efficiency in a MicroBeta scintillation counter (Perkin-Elmer) using EcoScint liquid scintillation cocktail

sigma-2 (σ2) site = sigma-2 (σ2) site (Homo sapiens, UniProt Q5BJF2); settings: result in words, background; cited from earlier work
sigma-2 (σ2) site, sequence (Q5BJF2 whole entry): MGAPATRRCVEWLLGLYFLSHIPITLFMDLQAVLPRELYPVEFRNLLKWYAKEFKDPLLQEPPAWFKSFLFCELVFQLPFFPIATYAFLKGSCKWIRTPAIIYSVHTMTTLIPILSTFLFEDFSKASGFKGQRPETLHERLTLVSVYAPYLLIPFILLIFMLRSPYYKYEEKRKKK

T1 sequence (Q99720 whole entry): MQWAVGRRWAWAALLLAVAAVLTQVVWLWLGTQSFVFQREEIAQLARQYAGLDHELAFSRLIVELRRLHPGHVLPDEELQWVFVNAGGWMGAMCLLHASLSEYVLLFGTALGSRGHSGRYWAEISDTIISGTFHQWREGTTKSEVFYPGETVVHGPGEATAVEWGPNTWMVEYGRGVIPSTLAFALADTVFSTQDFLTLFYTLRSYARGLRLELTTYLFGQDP

Row | Compound | Ki (human σ1 receptor) [nM] | affinity for the sigma-2 (σ2) site (sigma-2 (σ2) site)
1 | CCN1C[C@]2(CC[C@@H](N(C)CCC(C)C)CC2)OC(C)(C)C1=O [Example 57, (6r,9r)-4-ethyl-9-(isopentyl(methyl)amino)-2,2-dimethyl-1-oxa-4-azaspiro[5.5]undecan-3-one] | < 100 | –
2 | CN(CCc1ccccc1)[C@H]1CC[C@@]2(CC1)CN(C(=O)c1ccccc1)CC1(CC1)O2 [Example 58, ((5s,8s)-8-[methyl(phenethyl)amino]-4-oxa-12-azadispiro[2.1.5.3]tridecan-12-yl)(phenyl)methanone] | < 500 | –
3 | CC(C)CCN(C)[C@H]1CC[C@@]2(CC1)CN(C(=O)c1ccccc1)CC1(CC1)O2 [Example 59, ((5s,8s)-8-[isopentyl(methyl)amino]-4-oxa-12-azadispiro[2.1.5.3]tridecan-12-yl)(phenyl)methanone] | < 500 | –
4 | CC(C)CN(C)[C@H]1CC[C@@]2(CC1)CN(C(=O)c1ccccc1)CC1(CC1)O2 [Example 60, ((5s,8s)-8-[isobutyl(methyl)amino]-4-oxa-12-azadispiro[2.1.5.3]tridecan-12-yl)(phenyl)methanone] | < 500 | –
5 | CCN1CCO[C@]2(CC[C@@H](N(C)CCc3ccccc3)CC2)C1 [Example 61, (6s,9s)-4-ethyl-N-methyl-N-phenethyl-1-oxa-4-azaspiro[5.5]undecan-9-amine] | < 100 | –
6 | CCN1CC(C)(C)O[C@]2(CC[C@@H](N(C)Cc3ccccc3)CC2)C1 [Example 62, (6s,9s)-N-benzyl-4-ethyl-N,2,2-trimethyl-1-oxa-4-azaspiro[5.5]undecan-9-amine] | < 100 | –
7 | CCN1CCO[C@]2(CC[C@@H](N(C)CCC(C)C)CC2)C1 [Example 63, (6s,9s)-4-ethyl-N-isopentyl-N-methyl-1-oxa-4-azaspiro[5.5]undecan-9-amine] | < 500 | –
8 | CCN1CC(C)(C)O[C@]2(CC[C@@H](N(C)CCC(C)C)CC2)C1 [Example 64, (6s,9s)-4-ethyl-N-isopentyl-N,2,2-trimethyl-1-oxa-4-azaspiro[5.5]undecan-9-amine] | < 100 | –
9 | CCN1CC(C)(C)O[C@]2(CC[C@@H](N(C)CC(C)C)CC2)C1 [Example 65, (6s,9s)-4-ethyl-N-isobutyl-N,2,2-trimethyl-1-oxa-4-azaspiro[5.5]undecan-9-amine] | < 100 | –
10 | CCN1CC(C)(C)O[C@]2(CC[C@@H](N(C)CCc3ccccc3)CC2)C1 [Example 66, (6s,9s)-4-ethyl-N,2,2-trimethyl-N-phenethyl-1-oxa-4-azaspiro[5.5]undecan-9-amine] | < 100 | –
11 | CN(CCc1ccccc1)[C@H]1CC[C@@]2(CC1)CN(Cc1ccccc1)CC1(CC1)O2 [Example 67, (5s,8s)-12-benzyl-N-methyl-N-(2-phenylethyl)-4-oxa-12-azadispiro[2.1.5.3]tridecan-8-amine] | < 100 | –
12 | CC(C)CN(C)[C@H]1CC[C@@]2(CC1)CN(Cc1ccccc1)CC1(CC1)O2 [Example 68, (5s,8s)-12-benzyl-N-isobutyl-N-methyl-4-oxa-12-azadispiro[2.1.5.3]tridecan-8-amine] | < 100 | –
13 | (+)SKF-10047 | – | micromolar affinity
